Source: ChEMBL document CHEMBL5303304, “EUbOPEN Chemogenomics Library - IncuCyte” (2023)

How the values were obtained:
Type in all cases: toxicity, cell-based
U2OS = test: Incucyte cell viability with U2OS; details: human, 10 µM, compound concentration 10 uM
Fibroblast = test: Incucyte cell viability with human fibroblast; details: 10 µM, compound concentration 10 uM
HEK-293T = test: Incucyte cell viability with HEK293T; details: human, 10 µM, compound concentration 10 uM
Note: unitless GR value; below 1 slowed growth and below 0 cell loss.

| SMILES | Growth Rate (U2OS; 6 h, replicate number 1) | Growth Rate (U2OS; 12 h, replicate number 2) | Growth Rate (Fibroblast; 0 h, replicate number 2) | Growth Rate (Fibroblast; 18 h, replicate number 2) | Growth Rate (Fibroblast; 24 h, replicate number 2) | Growth Rate (HEK-293T; 0 h, replicate number 1) | Growth Rate (HEK-293T; 0 h, replicate number 2) | Growth Rate (U2OS; 0 h, replicate number 2) | Growth Rate (U2OS; 18 h, replicate number 2) | Growth Rate (U2OS; 24 h, replicate number 1) | Growth Rate (U2OS; 24 h, replicate number 2) | Growth Rate (Fibroblast; 0 h, replicate number 1) | Growth Rate (Fibroblast; 6 h, replicate number 1) | Growth Rate (HEK-293T; 6 h, replicate number 1) | Growth Rate (HEK-293T; 12 h, replicate number 1) | Growth Rate (HEK-293T; 12 h, replicate number 2) | Growth Rate (HEK-293T; 18 h, replicate number 1) | Growth Rate (HEK-293T; 18 h, replicate number 2) | Growth Rate (HEK-293T; 24 h, replicate number 1) | Growth Rate (U2OS; 6 h, replicate number 2) | other results |
| --- | --- | --- | --- | --- | --- | --- | --- | --- | --- | --- | --- | --- | --- | --- | --- | --- | --- | --- | --- | --- | --- |
| Cc1cc(CN(CC(=O)Nc2ccc(Cl)cc2Cl)C2CCCCC2)ccc1OCC(=O)O | 0.64 | 0.97 | -0.93 | 0.88 | 0.87 | 0.78 | 0.19 | – | – | – | – | – | – | – | – | – | – | – | – | – | Growth Rate (Fibroblast; 6 h, replicate number 2): 0.35; Growth Rate (Fibroblast; 12 h, replicate number 2): 0.9 |
| COCc1c(-c2cc3cc(C)cc(OC)c3s2)c2c(N)ncnn2c1CN[C@@H]1CCNC1=O | 0.62 | 0.77 | – | 0.77 | 0.98 | -0.25 | -0.02 | 0.73 | 0.85 | 0.44 | 0.9 | -1 | 0.36 | 0.47 | 0.43 | 0.2 | 0.61 | 0.49 | 0.62 | – | Growth Rate (U2OS; 12 h, replicate number 1): 0.45; Growth Rate (U2OS; 18 h, replicate number 1): 0.84; Growth Rate (Fibroblast; 12 h, replicate number 1): 0.6; Growth Rate (Fibroblast; 18 h, replicate number 1): 0.59; Growth Rate (Fibroblast; 24 h, replicate number 1): 0.46; Growth Rate (HEK-293T; 6 h, replicate number 2): 0.58; Growth Rate (HEK-293T; 24 h, replicate number 2): 0.65 |
| Cc1c(CCC(=O)O)cccc1NC(=O)[C@@H](c1ccc(-c2cncc(Cl)c2)c(F)c1)C1CCCC1 | 0.95 | – | – | 0.9 | 0.87 | -0.19 | -0.54 | – | – | – | – | – | – | – | – | – | – | – | – | – | Growth Rate (U2OS; 0 h, replicate number 1): 0.68; Growth Rate (U2OS; 12 h, replicate number 1): 0.73; Growth Rate (Fibroblast; 6 h, replicate number 2): -0.66; Growth Rate (Fibroblast; 12 h, replicate number 2): 0.3; Growth Rate (HEK-293T; 6 h, replicate number 2): 0.98 |
| CCn1c(=O)c2c(C)c(C(=O)N3CCC(O)CC3)sc2n(CCC(F)(F)F)c1=O | – | 0.97 | 0.25 | – | 0.97 | 0.93 | 0.32 | – | 0.97 | – | – | – | – | 0.41 | 0.79 | – | 0.74 | 0.86 | 0.83 | 0.72 | – |
| O=C(NCCN1CCOCC1)c1ccc2nn(CCOc3ccc(Cl)cc3)cc2c1 | 0.71 | 0.88 | -0.92 | 0.98 | – | 0.54 | 0.3 | 0.25 | – | 0.93 | – | -1 | 0.63 | 0.47 | 0.82 | 0.18 | 0.71 | 0.47 | 0.72 | 0.98 | Growth Rate (Fibroblast; 6 h, replicate number 2): 0.87; Growth Rate (Fibroblast; 12 h, replicate number 2): 0.78; Growth Rate (Fibroblast; 18 h, replicate number 1): 0.86; Growth Rate (Fibroblast; 24 h, replicate number 1): 0.92; Growth Rate (HEK-293T; 6 h, replicate number 2): 0.26; Growth Rate (HEK-293T; 24 h, replicate number 2): 0.61 |
| O=C(O)CCCCN(CCc1cc(F)ccc1OCc1ccc(-c2ccc(C(F)(F)F)cc2)cc1)Cc1ccc(C(=O)O)cc1 | 0.61 | 0.87 | -0.98 | – | – | 0.09 | -0.87 | -0.4 | 0.85 | – | 0.91 | -1 | 0.59 | – | – | – | – | – | – | 0.58 | Growth Rate (U2OS; 0 h, replicate number 1): 0.99; Growth Rate (Fibroblast; 12 h, replicate number 1): 0.66; Growth Rate (Fibroblast; 18 h, replicate number 1): 0.85; Growth Rate (Fibroblast; 24 h, replicate number 1): 0.96 |
| CCS(=O)(=O)Nc1cccc(Oc2cncc(Nc3ccc(I)cc3F)c2C(N)=O)c1 | 0.71 | 0.76 | – | – | – | 0.82 | – | – | – | 0.84 | 0.98 | – | 0.99 | 0.77 | 0.82 | 0.71 | 0.77 | 0.58 | 0.74 | 0.62 | Growth Rate (U2OS; 18 h, replicate number 1): 0.92; Growth Rate (HEK-293T; 24 h, replicate number 2): 0.69 |
| Cl.O=c1cc(C2CCNCC2)n2nc3cccc(Cl)c3c2[nH]1 | 0.98 | 1 | -0.98 | – | – | -0.29 | -0.61 | – | – | – | – | -0.94 | – | – | – | 0.58 | – | 0.96 | – | – | Growth Rate (U2OS; 0 h, replicate number 1): 0.61; Growth Rate (U2OS; 18 h, replicate number 1): 0.98; Growth Rate (HEK-293T; 24 h, replicate number 2): 0.91 |
| O=C(O)C[C@H]1CCn2c1c(Sc1ccc(Cl)cc1)c1ccc(F)cc12 | – | – | – | 0.97 | 0.83 | 0.01 | -0.28 | – | – | 0.94 | – | -1 | – | 0.76 | 0.96 | 0.99 | – | 0.93 | 0.92 | – | Growth Rate (Fibroblast; 6 h, replicate number 2): 0.42; Growth Rate (Fibroblast; 12 h, replicate number 2): 0.4; Growth Rate (Fibroblast; 24 h, replicate number 1): 0.89; Growth Rate (HEK-293T; 24 h, replicate number 2): 0.78 |
| CC[C@@H](CO)Nc1nc(Nc2cccc(NC(=O)C(C)(C)C)c2)ncc1F | 0.56 | 0.83 | 0.61 | – | – | 0.29 | – | 0.94 | 0.86 | 0.91 | 0.89 | – | – | – | 0.87 | – | – | – | 0.96 | 0.8 | Growth Rate (U2OS; 12 h, replicate number 1): 0.66; Growth Rate (U2OS; 18 h, replicate number 1): 0.87 |
| Cc1nc2c(cc1F)c(-c1nnc3c(n1)NC(=O)C3(C)C)nn2Cc1cccc(F)c1F | 0.9 | 0.84 | 0.67 | – | – | 0.61 | 0.48 | 0.99 | 0.95 | – | – | -1 | 0.59 | 0.97 | 0.95 | 0.74 | 0.75 | 0.8 | 0.79 | 0.58 | Growth Rate (Fibroblast; 18 h, replicate number 1): 0.85; Growth Rate (Fibroblast; 24 h, replicate number 1): 0.94; Growth Rate (HEK-293T; 6 h, replicate number 2): 0.57; Growth Rate (HEK-293T; 24 h, replicate number 2): 0.91 |
| CC(C)(C)c1cc(NC(=O)c2csc(Nc3ccc(Cl)cc3)n2)no1 | – | – | – | 0.74 | 0.87 | 0.27 | -0.44 | – | – | -0.59 | – | -1 | 0.89 | – | – | 0.99 | 0.94 | – | 0.97 | – | Growth Rate (Fibroblast; 12 h, replicate number 2): 0.46; Growth Rate (Fibroblast; 24 h, replicate number 1): 0.8; Growth Rate (HEK-293T; 6 h, replicate number 2): 0.84 |
| N#Cc1c(SCc2csc(-c3ccc(Cl)cc3)n2)nc(N2CCCC2)c(C#N)c1-c1ccc(OCCO)cc1 | 0.87 | 0.77 | -1 | – | – | -0.68 | -0.75 | 0.14 | 0.93 | – | 0.97 | – | – | – | – | – | – | – | – | 0.8 | – |
| Cc1cc(S(=O)(=O)N2CC(C)(C)c3cc(-c4ccc(C(F)(F)F)cc4)ccc32)ccc1OCC(=O)O | 0.69 | 0.54 | -0.87 | – | – | 0.52 | -0.17 | -0.69 | 0.8 | – | 0.98 | -0.12 | 0.92 | 0.72 | 0.7 | 0.81 | 0.71 | 0.95 | 0.79 | 0.68 | Growth Rate (HEK-293T; 6 h, replicate number 2): 0.73 |
| CC(C)(C)OC(=O)CN1C(=O)c2c(OCC(=O)O)cccc2Oc2ccc(C(F)(F)F)cc21 | 0.75 | – | – | 0.87 | – | 0.31 | -0.65 | – | – | 0.89 | – | – | 0.95 | 0.69 | 0.61 | – | 0.76 | – | 0.75 | – | Growth Rate (U2OS; 0 h, replicate number 1): 0.59; Growth Rate (U2OS; 12 h, replicate number 1): 0.85; Growth Rate (U2OS; 18 h, replicate number 1): 0.83; Growth Rate (Fibroblast; 6 h, replicate number 2): -0.59; Growth Rate (Fibroblast; 12 h, replicate number 2): 0.43 |
| Cc1nn(-c2ccccc2)c(Nc2ccccc2C(=O)O)c1-c1cc2nccnc2c(F)c1F | 0.75 | – | -0.36 | 0.57 | 0.79 | 0.45 | -0.55 | – | – | – | – | – | 0.39 | – | – | – | – | – | – | – | Growth Rate (U2OS; 12 h, replicate number 1): 1; Growth Rate (Fibroblast; 6 h, replicate number 2): -0.17 |
| C[C@]12CC[C@@H]3c4ccc(C(N)=O)cc4CC[C@H]3[C@@H]1CC=C2c1cncc(F)c1 | – | 0.79 | -0.92 | – | – | -0.13 | – | – | 0.92 | – | 1 | – | – | 0.93 | 0.9 | 0.31 | 0.96 | 0.29 | 0.97 | – | Growth Rate (U2OS; 0 h, replicate number 1): 0.64; Growth Rate (U2OS; 12 h, replicate number 1): 0.98; Growth Rate (HEK-293T; 6 h, replicate number 2): -0.72; Growth Rate (HEK-293T; 24 h, replicate number 2): 0.4 |
